Data set [1] is described as follows: Dynamic vapor sorption measurement. Format: physicochemical. Conditions: for Diffractogram after DVS measurement versus initial: XRPD after humidity cycles. As for the experimental part:
Vapour sorption experiments were performed in the instrument SPSx-1 μ (Projekt Messtechnik, Ulm, Germany) at a temperature of 25° C., using the humidity cycles specified below: [table]

The conditions of data set [2]: cited from earlier work.
Data set [3] in a line: Solubility determination in organic solvents at room temperature. Format: physicochemical. Conditions: chloroform, 23 °C, organic solvent or mixture, thermodynamic from solid, 23° C. (room temperature). On the procedure:
Solubilities in organic solvents (methanol, acetone, chloroform, DMSO) were determined similarly at room temperature with the difference that the suspensions were not stirred but treated with a vortex mixer for 20 s.

The nature of data set [4]: Solubility determination in aqueous solvents at 37° C. It counts as physicochemical. Conditions: for solubility at 60 min / solubility at 15 min: 37 °C, thermodynamic from solid. As for the experimental part: Approximately 200 mg (exactly weighed) test substance was weighed into a glass vial, followed by addition of 2 mL solvent (water, 0.01M HCl, 20 mM NaOAc/HOAc pH 4.5, 50 mM KH2PO4 pH 6.8). A stirring bar was added, the vial was fixed in a block heater at 37° C. and the suspension was stirred with approximately 250 rpm. After 15 min and 1 hour samples were withdrawn, filtered through a 0.2 μm disposable filter, diluted with solvent and quantified by UHPLC/UV.

Where [5] appears, read: 25° C., humidity cycles 0-95% RH.
Setting [6] is: 50 mM KH2PO4 buffer, pH 6.8, aqueous buffer, 50 mM KH2PO4 (pH 6.8).

Each structure is given as a SMILES string. Values after ≈ are worked out from the molar mass of the structure shown. Counter-ions that a name gives are not always drawn.

On to `CC(=O)O.CC(=O)c1c(C)c2cnc(Nc3ccc(N4CCNCC4)cn3)nc2n(C2CCCC2)c1=O` [Palbociclib acetic acid adduct Form 1], for which the “Sample weight change after the DVS measurement” value in data set [1] (setting [5]) is listed as −0.5%. Besides, the “Diffractogram after DVS measurement versus initial” value in data set [1] is “practically identical with the initial one”.
Take `CC(=O)c1c(C)c2cnc(Nc3ccc(N4CCNCC4)cn3)nc2n(C2CCCC2)c1=O` [Palbociclib in form of the free base, 6-acetyl-8-cyclopentyl-5-methyl-2-{[5-(1-piperazinyl)-2-pyridinyl]amino}pyrido[2,3-d]pyrimidin-7(8H)-one]: the “Solubility under acidic conditions (in words)” value in data set [2] (at or below pH 4) is “good solubility”. Besides, the “Solubility in water (in words)” value in data set [2] is on record as “practically insoluble”.
Regarding `CC(=O)c1c(C)c2cnc(Nc3ccc(N4CCNCC4)cn3)nc2n(C2CCCC2)c1=O` [Palbociclib in present crystalline Form, 6-acetyl-8-cyclopentyl-5-methyl-2-{[5-(1-piperazinyl)-2-pyridinyl]amino}pyrido[2,3-d]pyrimidin-7(8H)-one], the Maximum water uptake in data set [1] (setting [5]) turned out to be 1.3%. The “Sample weight change after the DVS measurement” value in data set [1] (setting [5]) is given as −0.2%. Also, in data set [1], the “Diffractogram after DVS measurement versus initial” value was “practically identical with the initial one”. The solubility at 20 s in data set [3] worked out at 86100 µg/mL (≈ 192 mM). For the same compound, the solubility at 60 min in data set [4] (0.01M HCl, pH 2, simulated gastric fluid) is 4300 µg/mL (≈ 9.61 mM); in data set [4] (setting [6]) it was 100 µg/mL (≈ 0.223 mM). In addition, the solubility at 15 min was found to be 16200 µg/mL (≈ 36.2 mM) in data set [4] (20 mM NaOAc/HOAc buffer, pH 4.5, aqueous buffer, 20 mM NaOAc/HOAc (pH 4.5)) and 100 µg/mL (≈ 0.223 mM) in data set [4] (setting [6]). Also, the “Solubility in aqueous solvents compared with Form A (in words)” value in data set [4] (aqueous solvents) is “comparable to that of Form A”.
For `CC(=O)c1c(C)c2cnc(Nc3ccc(N4CCNCC4)cn3)nc2n(C2CCCC2)c1=O` [dihydrochloride], the “Solubility in water (in words)” value in data set [2] is “good water solubility”.
On to `CC(=O)c1c(C)c2cnc(Nc3ccc(N4CCNCC4)cn3)nc2n(C2CCCC2)c1=O` [hydrochloride], for which the “Solubility in water (in words)” value in data set [2] is given as “good water solubility”.

By solubility is commonly meant the concentration that dissolves in the medium under given conditions.

Values taken from patent US10526326B2, “Crystalline form and acetic acid adducts of palbociclib” (RATIOPHARM GMBH, priority 2015, dated 2020).
